Earlier results, collected in US20050169988A1, “High molecular weight, lipophilic, orally ingestible bioactive agents in formulations having improved bioavailability” (Shaklee Corporation, priority 2001, published 2005).

Solubility in water: practically insoluble in water
Structure (SMILES): COC1=C(OC)C(=O)C(C/C=C(\C)CC/C=C(\C)CC/C=C(\C)CC/C=C(\C)CC/C=C(\C)CC/C=C(\C)CC/C=C(\C)CC/C=C(\C)CC/C=C(\C)CCC=C(C)C)=C(C)C1=O [CoQ10, 2,3-dimethoxy-5-methyl-6-decaprenyl-1,4-benzoquinone]
